{
  "source": "patent US5541232A",
  "about": "“Treatment of multidrug resistant diseases” (Chemex Pharmaceuticals, Inc., priority 1994, dated 1996)",
  "format_in_all_cases": "cell-based",
  "key": {"[1]": {"tested_on": "MCF7/ADR human breast adenocarcinoma cells", "assay": "flow cytometry P-glycoprotein function assay of doxorubicin efflux, MCF7/ADR (doxorubicin resistant)", "experimental": "The following tests were preformed to determine the effect of NDGA on efflux of doxorubicin (hereinafter sometimes referred to as DOX) for doxorubicin sensitive MCF7/0 and doxorubicin resistant MCF7/ADR human breast adenocarcinoma cells in vitro.\nThe cells were exposed to 50 μg/ml NDGA for 24 hrs prior to loading with DOX (doxorubicin) at 37° C. […] PBS. Flow analysis of cell efflux of DOX was collected over 30 minutes using the time parameter.\nProcedure for P-Glycoprotein (PGP) Function Assay of Doxorubicin Efflux is shown hereunder.\n1. […] Store at room temperature.\n2. Doxorubicin (GFW=580) Make a solution of doxorubicin to contain 10 μg/ml. Store frozen at 0° C.\n4. NDGA (MW=302.36) Make a solution of NDGA to contain 50 μg/ml. Store frozen at 0° C.\n5. MCF7/0 (Doxorubicin sensitive) and MCF7/ADR (Doxorubicin resistant), human breast adenocarcinoma cell lines.\n1. Make up 2×10^6 cells per ml in PBS. Expose 1 ml of cells to 50 μg of NDGA for 24 hrs at 37° C. prior to loading with Doxorubicin.\n2. Add 1 ml of 10 μg/ml doxorubicin, mix and divide into two aliquots.\n4. Incubate both tubes at 37° C. for 30 minutes.\n5. Centrifuge the tubes at 37° C. for 5 minutes on a fast spin to pellet cells. Resuspend in 1 ml of buffer.\n6. Run immediately on the flow cytometer. Excitation 488 nm, emission 560-600 nm. Collect forward and 90° side scatter and PMT4 linear scale. Collect 10,000-50,000 events and calculate the mean channel fluorescence (MCF) for PMT4.\n7. Run both samples as close together as possible, and avoid prolonged exposure to room temperature."}, "[2]": {"tested_on": "KB-3-1 human cervical carcinoma cells", "assay": "inhibition of colony formation, KB-3-1", "conditions": "KB 3-1, 240 h, read-out: IC50 (Masoprocol), 50% inhibition of colony formation, 10 days, 37° C., parenthesis: standard deviation", "description": "To investigate whether masoprocol modulates multidrug resistance, a line of multidrug resistant (GRC-1) cells which were derived from parenteral drug sensitive human cervical carcinoma (KB-3-1) cells by transfection of the mdr1 genes were employed. Such transfection was by the method set forth in Choi, et al., Cell 53:519-529, 1989. These cell lines differ only with respect to the over-expression of P-glycoprotein. These tests were designed to examine whether masoprocol modulates tumor cell drug resistance by interfering with P-glycoprotein function. […] See, Regulation of initial vinblastine influx by P-glycoprotein, Shalinsky, et al., cited above.\nMasoprocol was provided by Chemex Pharmaceuticals, Inc. (Fort Lee, N.J.). Tritiated vinblastine ([^3 H]VBL) (10 Ci mmol^-1) was purchased from Moravek Biochemicals (Brea, Calif.), stored in the dark at -80° C. and protected from light during the experiments. […]\nFirst, cells which had been seeded at 200-300 cells/dish were incubated in media containing masoprocol or VBL. After an incubation period of 10 days at 37° C. the cells were fixed with methanol and stained with Giemsa, and the number of colonies per dish were counted and expressed as a percent of the number of colonies in control conditions. […] Parenthesis indicate standard deviations determined from replicate experiments."}, "[3]": {"tested_on": "GRC-1 multidrug resistant human cervical carcinoma cells", "assay": "initial influx of VBL, GRC-1", "conditions": "50 μM masoprocol added concurrently with VBL, 3 to 24 seconds; FIG. 4a", "experimental": "A further test was conducted to show the effect of masoprocol on the initial influx of VBL. Cells were exposed to media containing [^3 H]VBL with and without 50 μM masoprocol. After incubation times ranging from 3 seconds to 24 seconds, the media was removed. The amount of VBL taken up by the cells was determined as described in A. The data was summarized from four replicate experiments. FIG. 4apresents the results for the GRC-1 cell line, and FIG. 4b for the KB-3-1 cell line."}, "[4]": {"tested_on": "multidrug resistant tumor cells", "assay": "effects on vincristine (VBL substituted by vincristine in Example 3)", "description": "In accordance with the invention VBL can be substituted by vincristine in Example 3."}},
  "note": "Entries after “also recorded” stand apart in the source; their conditions may differ.",
  "data": [
    {"smiles": "C[C@H](Cc1ccc(O)c(O)c1)[C@@H](C)Cc1ccc(O)c(O)c1", "note": "[Masoprocol, meso-1,4-bis (3,4-dihydroxyphenyl)-2,3-dimethylbutane]", "values": [
      {"measurement": "activation at 50 µg/mL", "setting": "[1]; Homo sapiens, NCI/ADR-RES, 24 h, read-out: % DOX increase w/NDGA", "result": 25.6, "unit": "%"},
      {"measurement": "DOX loading / retention / efflux (in words)", "setting": "[1]; resistant cells, listed as NDGA", "result": "augmentation of DOX retention; also recorded: will inhibit the efflux of DOX"},
      {"measurement": "IC50", "setting": "[2]", "result": 43.6, "unit": "µM"},
      {"measurement": "initial VBL uptake (influx)", "setting": "[3]", "result": "substantial increase in initial VBL uptake; also recorded: effective modulator of initial VBL influx; also recorded: promotes the initial uptake of VBL"},
      {"measurement": "effects on vincristine compared with VBL", "setting": "[4]", "result": "comparative effects"}
    ]}
  ]
}
